This note sets out measurements from patent publication US20180290138A1, “MICROFLUIDIC CHIP FOR SCREENING ANTICANCER DRUG RESISTANT CELLS AND USE THEREOF” (RESEARCH & BUSINESS FOUNDATION SUNGKYUNKWAN UNIVERSITY, priority 2015, published 2018).

pIC50: −log10 of the molar value.

One test concerns U87 cells. The test is described as follows: Evaluation of anticancer drug resistance: cell viability with doxorubicin, U87 cells (WT cells). As to conditions: Homo sapiens, U-87 MG; U87 cells (WT cells) cultured in general medium; 72 h culture; living cell count; non-linear regression. It counts as cell-based. Here is the method: (§1) 3,000 cells (U87 and U87-DG cells) were seeded into a 96-well plate in 200 μl of an MEM medium containing doxorubicin at various concentrations (0, 0.005, 0.01, 0.02, 0.05, 0.1, 0.2, 0.5, 0.75, and 1 μM). After seventy-two hours of culturing, the number of living cells in each well was calculated. Cell viability was calculated by dividing the number of living cells in a doxorubicin-contained well by the number of living cells in a doxorubicin-free well. After plotting a concentration of doxorubicin with respect to cell viability, IC50 was estimated through non-linear regression analysis using Graphpad Prism (GraphPad Software, Inc., La Jolla, Calif. USA).

Another test deals with U87-DG cells. Put plainly: Evaluation of anticancer drug resistance: cell viability with doxorubicin, U87-DG cells (chip cells). It is filed as cell-based. To be noted: Homo sapiens; U87-DG cells (chip cells) cultured with Death galaxy chip under doxorubicin gradient; 72 h culture; living cell count; non-linear regression.
From the text: In the Death galaxy chip, for 7 days, U87 cells derived from human primary glioblastoma were exposed to an anticancer drug such as doxorubicin according to a concentration gradient, and a hexagonal microchamber array was removed from a surface of the living cells (U87-DG cells)-attached cell culture plate. The inventors trypsinized the U87-DG cells to analyze the characteristic of phenotypes thereof, collected the cells, and transferred them to a new culture plate to culture the cells in a normal growth medium (MEM) for one week.
as §1

The pIC50 is the IC50 on a negative log10 scale, so that one unit is a factor of ten. A higher pIC50 goes with a low IC50. As for `COc1cccc2c1C(=O)c1c(O)c3c(c(O)c1C2=O)C[C@@](O)(C(=O)CO)C[C@@H]3O[C@H]1C[C@H](N)[C@H](O)[C@H](C)O1` [doxorubicin], the pIC50 in the test with U87 cells is 7.30; in the test with U87-DG cells it was 5.83.
